Literature values as cited in patent publication US20030093057A1, “Methods and formulations for photodynamic therapy” (priority 2001, published 2003).
Where two headings read alike, the source gives them in different places.

What was measured:
[1] = mouse skin
[2] = human skin

penetration of ALA into skin at increased temperature [1]: did not cause increased penetration | penetration of ALA into skin at increased temperature [2]: did not cause increased penetration
Compound: NCC(=O)CCC(=O)O [ALA, delta-aminolevulinic acid]
